The values below come from the Kinase Knowledgebase extract (Sharma et al. 2016).

Assay [1] deals with CDK2 (human) (UniProt P24941). The assay is described as follows: Enzyme Assay.
For a further assay, the target named is CDK2;CDK1 (human) (UniProt P24941). Description: Cell-Based Assay.
Assay [2] deals with CDK2 (human) (UniProt P24941). Description: Enzyme Assay. The source holds these as a separate data set.

Values joined by “and” are separate entries in the source; they are usually repeats but may differ in a detail not shown here. Identical values can stand only once. Where only a bound is given, the exact number is not on record here.

For orientation: IC50 means the concentration needed to halve the response being measured. Higher therefore signals weaker potency in that assay. In turn, `CC(C)n1cnc2c(NCc3ccc(-c4ccccc4)cc3)nc(NC3(CO)CCCC3)nc21` came in with an IC50 against CDK2 (human) [1] of more than 10 µM.
In the case of `CC(=O)N[C@H]1CC[C@H](Nc2nc(NCc3ccc(-c4ccc(F)c(Cl)c4)cc3)c3ncn(C(C)C)c3n2)CC1`, the concentration for half-maximal inhibition (IC50) on CDK2 (human) [1] is more than 10 µM.
The GI50 is the concentration that inhibits growth by half. With `CC(=O)N[C@H]1CC[C@H](Nc2nc(NCc3ccc(-c4cccc(F)c4)cc3)c3ncn(C(C)C)c3n2)CC1`, the concentration for 50% growth inhibition (GI50) with CDK2;CDK1 (human) (hela-s3) was 70 nM and 200 nM.
With `CC(=O)N[C@H]1CC[C@H](Nc2nc(NCc3ccc(-c4ccc(C(=O)O)cc4)cc3)c3ncn(C(C)C)c3n2)CC1`, the IC50 on CDK2 (human) [1] and against CDK2 (human) [2] was more than 10 µM each time.
Take `CC(C)n1cnc2c(NCc3ccc(-c4ccccc4)cc3)nc(N[C@H]3CCCC[C@H]3NC(=O)Nc3ccccc3)nc21`: the half-inhibitory concentration (IC50) at CDK2 (human) [1] and at CDK2 (human) [2] was more than 10 µM in each case.
Turning to `CC[C@H](CO)Nc1nc(NCc2ccc(-c3cccc(NC(C)=O)c3)cc2)c2ncn(C(C)C)c2n1`, the IC50 against CDK2 (human) [1] is more than 10 µM.
Take `CC(=O)N[C@H]1CC[C@H](Nc2nc(NCc3ccc(-c4ccccc4)nc3)c3ncn(C(C)C)c3n2)CC1`: in the assay with CDK2;CDK1 (human) (h226), the concentration for 50% growth inhibition (GI50) came out at 52 nM. This counts as double-digit nanomolar.
For the molecule `CC(=O)N[C@H]1CC[C@H](Nc2nc(NCc3ccc(-c4ccc(Cl)cc4)cc3)c3ncn(C(C)C)c3n2)CC1`, on CDK2 (human) [1], the 50% inhibitory concentration (IC50) is more than 10 µM.
Still for that read-out and setting: in the case of `COC(=O)c1ccc(-c2ccc(CNc3nc(N[C@H]4CC[C@H](NC(C)=O)CC4)nc4c3ncn4C(C)C)cc2)cc1` it was more than 10 µM.
Turning to `CC(=O)C1CCN(c2nc(NCc3ccc(-c4ccccc4)cc3)c3ncn(C(C)C)c3n2)CC1`, the 50% growth inhibitory concentration (GI50) with CDK2;CDK1 (human) (hela-s3) was 3000 nM and 5000 nM.
At CDK2 (human) [1], `CC(C)n1cnc2c(NCc3ccc(-c4ccccc4)cc3)nc(N[C@H]3CC[C@H](O)CC3)nc21` had an IC50 of more than 10 µM. Further, in the assay with CDK2;CDK1 (human) (adr-res), the GI50 was found to be 30 nM.
`CC(C)n1cnc2c(NCc3ccc(-c4cccc(F)c4)cc3)nc(N[C@H]3CC[C@H](N)CC3)nc21`: the GI50 with CDK2;CDK1 (human) (hela-s3) is 50 nM and 30 nM.
On to `CC(=O)N[C@H]1CCCC[C@@H]1Nc1nc(NCc2ccc(-c3ccccc3)cc2)c2ncn(C(C)C)c2n1`, for which the half-maximal inhibitory concentration (IC50) at CDK2 (human) [1] and on CDK2 (human) [2] was more than 10 µM throughout.
In turn, `CC(=O)N[C@H]1CC[C@H](Nc2nc(NCc3ccc(-c4ccc(F)cc4)cc3)c3ncn(C(C)C)c3n2)CC1` had a 50% inhibitory concentration (IC50) on CDK2 (human) [1] of more than 10 µM.
Still for that read-out and setting: in the case of `CC(=O)N[C@H]1CC[C@H](Nc2nc(NCc3ccc(-c4ccc(C)cc4)cc3)c3ncn(C(C)C)c3n2)CC1` it was more than 10 µM.
For `CC(=O)N[C@@H](C)CNc1nc(NCc2ccc(-c3ccccc3)cc2)c2ncn(C(C)C)c2n1`, the results for the 50% inhibitory concentration (IC50) on CDK2 (human) [1] and against CDK2 (human) [2] were not below 10 µM and more than 10 µM, respectively.
